The experiment concerns the target human TLR7 (Homo sapiens (Human), UniProt Q9NYK1). The experiment in a line: Test for evaluating the inhibition of the activation of human TLR7 (SEAP reporter, TLR7/NF-κB/SEAPorter HEK293 cell). Type of experiment: cell-based. The following applies: R-848 200 nmol/L; for inhibitory effect against TLR7 in the test for evaluating inhibition of the activation of TLR7: SEAP activity, result in words; for IC50: SEAP reporter. The essentials: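 HEK293 cells stably expressing full-length human TLR7 and an NF-κB-driven SEAP reporter. They were grown in DMEM with 10% FBS and blasticidin, and seeded at 5×10^4 cells/well overnight at 37° C, 5% CO2. Inhibition of TLR7 activation was read as SEAP output.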

Molecules are shown by their SMILES.

Chain of human TLR7 (Q9NYK1 27-1049): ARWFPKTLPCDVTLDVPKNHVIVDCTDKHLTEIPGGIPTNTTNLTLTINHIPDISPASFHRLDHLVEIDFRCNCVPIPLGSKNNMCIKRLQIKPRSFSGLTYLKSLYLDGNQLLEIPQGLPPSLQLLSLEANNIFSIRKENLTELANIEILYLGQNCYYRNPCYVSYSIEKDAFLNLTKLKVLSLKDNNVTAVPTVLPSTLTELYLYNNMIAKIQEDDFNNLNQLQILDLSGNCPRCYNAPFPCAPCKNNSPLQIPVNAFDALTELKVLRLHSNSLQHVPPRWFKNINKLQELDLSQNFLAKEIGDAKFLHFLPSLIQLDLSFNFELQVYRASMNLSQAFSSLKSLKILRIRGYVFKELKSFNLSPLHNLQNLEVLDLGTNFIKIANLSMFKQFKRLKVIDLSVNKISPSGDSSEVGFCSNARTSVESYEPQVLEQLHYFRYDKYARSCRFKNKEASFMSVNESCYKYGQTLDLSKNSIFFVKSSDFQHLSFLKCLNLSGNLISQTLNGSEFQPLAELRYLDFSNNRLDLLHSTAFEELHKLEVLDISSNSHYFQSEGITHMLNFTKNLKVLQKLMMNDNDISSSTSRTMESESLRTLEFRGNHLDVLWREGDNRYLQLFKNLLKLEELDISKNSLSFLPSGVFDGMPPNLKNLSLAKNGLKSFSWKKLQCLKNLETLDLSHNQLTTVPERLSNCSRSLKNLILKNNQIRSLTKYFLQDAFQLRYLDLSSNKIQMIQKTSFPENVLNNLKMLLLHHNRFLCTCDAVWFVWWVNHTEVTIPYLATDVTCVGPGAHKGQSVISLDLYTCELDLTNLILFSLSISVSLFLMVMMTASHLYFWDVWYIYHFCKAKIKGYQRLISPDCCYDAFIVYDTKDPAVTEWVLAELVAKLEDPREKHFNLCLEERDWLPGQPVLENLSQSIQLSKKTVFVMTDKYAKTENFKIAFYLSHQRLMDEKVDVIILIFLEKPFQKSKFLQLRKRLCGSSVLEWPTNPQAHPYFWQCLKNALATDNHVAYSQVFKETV

With `CCOc1nc(C)c2nc(-c3cncc(F)c3)n(Cc3cnn(CC4CCN(C)C4)c3)c2n1` (stereo not drawn) [Example 278], the “inhibitory effect against TLR7 in the test for evaluating inhibition of the activation of TLR7” value (“inhibitory effect against TLR7” for short) is “potent inhibitory effect against TLR7” and the IC50 (usually the concentration that inhibits the measured activity by half) amounted to 0.072 µM.
Take `CCOc1nc(C)c2nc(-c3cncc(F)c3)n(Cc3cnn(CC4CCN(C)C4)c3)c2n1` (stereo not drawn) [Example 279]: the “inhibitory effect against TLR7” value is listed as “potent inhibitory effect against TLR7” and it took 0.04 µM to reach half-maximal inhibition (IC50).
The like results for `COc1nc(C)c2nc(-c3cncc(F)c3)n(Cc3ccc(CN4C[C@@H]5C[C@H]4CN5C)cc3F)c2n1` [Example 280, 9-(2-fluoro-4-{[(1S,4S)-5-methyl-2,5-diazabicyclo[2.2.1]hept-2-yl]methyl}benzyl)-8-(5-fluoropyridin-3-yl)-2-methoxy-6-methyl-9H-purine] were, in that order, “potent inhibitory effect against TLR7” and 0.003 µM.
`CCOc1nc(C)c2nc(-c3cncc(F)c3)n(Cc3cnc(CC4CCN(C)CC4)cc3OC)c2n1` [Example 281] yielded an IC50 of 0.142 µM.
With `COc1nc(C)c2nc(-c3cncc(F)c3)n(Cc3ccc(C4CCN(C)CC4)cc3F)c2n1` [Example 282, 9-[2-fluoro-4-(1-methylpiperidin-4-yl)benzyl]-8-(5-fluoropyridin-3-yl)-2-methoxy-6-methyl-9H-purine], the “inhibitory effect against TLR7” value is on record as “potent inhibitory effect against TLR7” and inhibition was half-maximal at 0.008 µM (IC50).
Turning to `COc1nc(C)c2nc(-c3cncc(F)c3)n(Cc3ccc(CC4CCN(C)CC4)cc3F)c2n1` [Example 283], the “inhibitory effect against TLR7” value is on record as “potent inhibitory effect against TLR7” and the IC50 was determined as 0.021 µM.
With `CCN1CCC(c2ccc(Cn3c(-c4cncc(F)c4)nc4c(C)nc(OC)nc43)c(F)c2)CC1` [Example 284, 9-[4-(1-ethylpiperidin-4-yl)-2-fluorobenzyl]-8-(5-fluoropyridin-3-yl)-2-methoxy-6-methyl-9H-purine], the “inhibitory effect against TLR7” value is on record as “potent inhibitory effect against TLR7” and the midpoint of inhibition, the IC50, lay at 0.003 µM.
As for `COc1nc(C)c2nc(-c3cncc(F)c3)n(Cc3ccc(O[C@H]4C[C@H]5CC[C@@H](C4)N5C)cc3F)c2n1` [Example 285, 9-(2-fluoro-4-{[(3-endo)-8-methyl-8-azabicyclo[3.2.1]oct-3-yl]oxy}benzyl)-8-(5-fluoropyridin-3-yl)-2-methoxy-6-methyl-9H-purine], the “inhibitory effect against TLR7” value is “potent inhibitory effect against TLR7” and inhibition was half-maximal at 0.002 µM (IC50).
Consider `COc1nc(C)c2nc(-c3cncc(F)c3)n(Cc3ccc(OCC4CN(C)C4)cc3F)c2n1` [Example 286, 9-{2-fluoro-4-[(1-methylazetidin-3-yl)methoxy]benzyl}-8-(5-fluoropyridin-3-yl)-2-methoxy-6-methyl-9H-purine], for which the “inhibitory effect against TLR7” value is “potent inhibitory effect against TLR7” and half-maximal inhibition (IC50) was put at 0.026 µM.
The like results for `CCN1CC(COc2ccc(Cn3c(-c4cncc(F)c4)nc4c(C)nc(OC)nc43)c(F)c2)C1` [Example 287] were, in that order, “potent inhibitory effect against TLR7” and 0.029 µM.
The like results for `COc1nc(C)c2nc(-c3cncc(C#N)c3)n(Cc3ccc(C4CCN(C)CC4)cc3F)c2n1` [Example 288] were, in that order, “potent inhibitory effect against TLR7” and 0.062 µM.
On the same counts, the results for `CCN1CCC(c2ccc(Cn3c(-c4cncc(C#N)c4)nc4c(C)nc(OC)nc43)c(F)c2)CC1` [Example 289, 5-{9-[4-(1-ethylpiperidin-4-yl)-2-fluorobenzyl]-2-methoxy-6-methyl-9H-purin-8-yl}pyridine-3-carbonitrile] are “potent inhibitory effect against TLR7” and 0.03 µM.
Turning to `COc1nc(C)c2nc(-c3cncc(F)c3)n(Cc3ccc(C4CCN(C)C4)cc3F)c2n1` (stereo not drawn) [Example 290, 9-[2-fluoro-4-(1-methylpyrrolidin-3-yl)benzyl]-8-(5-fluoropyridin-3-yl)-2-methoxy-6-methyl-9H-purine], the “inhibitory effect against TLR7” value is recorded as “potent inhibitory effect against TLR7” and the IC50 was 0.022 µM.
As for `CCN1CCC(c2ccc(Cn3c(-c4cncc(F)c4)nc4c(C)nc(OC)nc43)c(F)c2)C1` (stereo not drawn) [Example 291, 9-[4-(1-ethylpyrrolidin-3-yl)-2-fluorobenzyl]-8-(5-fluoropyridin-3-yl)-2-methoxy-6-methyl-9H-purine], the “inhibitory effect against TLR7” value is “potent inhibitory effect against TLR7” and the IC50 came to 0.017 µM.
On the same counts, the results for `COc1nc(C)c2nc(-c3cccnc3)n(Cc3ccc(C4CCN(C)CC4)cc3F)c2n1` [Example 292, 9-[2-fluoro-4-(1-methylpiperidin-4-yl)benzyl]-2-methoxy-6-methyl-8-(pyridin-3-yl)-9H-purine] are “potent inhibitory effect against TLR7” and 0.039 µM.
As for `CCN1CCC(c2ccc(Cn3c(-c4cccnc4)nc4c(C)nc(OC)nc43)c(F)c2)CC1` [Example 293, 9-[4-(1-ethylpiperidin-4-yl)-2-fluorobenzyl]-2-methoxy-6-methyl-8-(pyridin-3-yl)-9H-purine], the “inhibitory effect against TLR7” value is listed as “potent inhibitory effect against TLR7” and the IC50 came to 0.018 µM.
In the case of `COc1nc(C)c2nc(-c3cncnc3)n(Cc3ccc(OC4CC5CCC(C4)N5C)cc3F)c2n1` (stereo not drawn) [Example 294, 9-(2-fluoro-4-{[(3-endo)-8-methyl-8-azabicyclo[3.2.1]oct-3-yl]oxy}benzyl)-2-methoxy-6-methyl-8-(pyrimidin-5-yl)-9H-purine], the “inhibitory effect against TLR7” value is reported as “potent inhibitory effect against TLR7” and it took 0.019 µM to reach half-maximal inhibition (IC50).
For `COc1nc(C)c2nc(-c3cncc(C#N)c3)n(Cc3ccc(OC4CC5CCC(C4)N5C)cc3F)c2n1` (stereo not drawn) [Example 295, 5-[9-(2-fluoro-4-{[(3-endo)-8-methyl-8-azabicyclo[3.2.1]oct-3-yl]oxy}benzyl)-2-methoxy-6-methyl-9H-purin-8-yl]pyridine-3-carbonitrile], the “inhibitory effect against TLR7” value is given as “potent inhibitory effect against TLR7” and inhibition was half-maximal at 0.013 µM (IC50).
As for `CCN1C2CCC1CC(Oc1ccc(Cn3c(-c4cncc(C#N)c4)nc4c(C)nc(OC)nc43)c(F)c1)C2` (stereo not drawn) [Example 296, 5-[9-(4-{[(3-endo)-8-ethyl-8-azabicyclo[3.2.1]oct-3-yl]oxy}-2-fluorobenzyl)-2-methoxy-6-methyl-9H-purin-8-yl]pyridine-3-carbonitrile], the “inhibitory effect against TLR7” value is on record as “potent inhibitory effect against TLR7” and the IC50 was found to be 0.021 µM.
For the compound `COc1nc(C)c2nc(-c3cccnc3)n(Cc3ccc(OC4CC5CCC(C4)N5C)cc3F)c2n1` (stereo not drawn) [Example 297, 9-(2-fluoro-4-{[(3-endo)-8-methyl-8-azabicyclo[3.2.1]oct-3-yl]oxy}benzyl)-2-methoxy-6-methyl-8-(pyridin-3-yl)-9H-purine], the “inhibitory effect against TLR7” value is “potent inhibitory effect against TLR7” and the IC50 worked out at 0.05 µM.

Source of the values: patent US10703755B2, “Substituted purine derivative” (SUMITOMO DAINIPPON PHARMA CO., LTD., priority 2016, dated 2020).
